# Results as given in the supplement of paper PMC11061612.
# Experiments:
# Assay in all cases: Bliss excess, mean over the matrix (fraction); higher = more synergy
# [1] = test system: SK-LMS-1 (Other Solid Carcinomas)
# Summary of the method: (§1)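 Cell lines in DMEM/F12 or RPMI with 10% FBS were plated in 1536-well plates, held 24 hours at 37°C, 5% CO2, then given two-drug dose matrices for 72 hours (DMSO typically 0.2%). Viability was read by CellTiter-Glo 2.0 luminescence and scaled as inhibition from 0 (vehicle wells) to 1 (blank wells). Combination Emax is the second-highest inhibition in the matrix; Bliss excess is observed combination effect minus expected EA + EB − EA·EB, EA and EB being single-agent effects.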
# [2] = test system: HCC-827 (Lung Adenocarcinoma)
# Summary of the method: as §1
# [3] = test system: SNG-M (Endometrial Carcinoma)
# Summary of the method: as §1
# MCF7 (Breast Carcinoma) = test system: MCF7 (Breast Carcinoma)
# Summary of the method: as §1
# [4] = test system: 647-V (Bladder Carcinoma)
# Summary of the method: as §1
# [5] = test system: YT (Other Blood Carcinomas)
# Summary of the method: as §1
# [6] = test system: RCC10RGB (Kidney Carcinoma)
# Summary of the method: as §1
# [7] = test system: HCC1143 (Breast Carcinoma)
# Summary of the method: as §1
# A172 (Glioblastoma) = test system: A172 (Glioblastoma)
# Summary of the method: as §1
# [8] = test system: TYK-nu (Ovarian Carcinoma)
# Summary of the method: as §1
# [9] = test system: HLE (Hepatocellular Carcinoma)
# Summary of the method: as §1
# [10] = test system: NOMO-1 (Acute Myeloid Leukemia)
# Summary of the method: as §1
# [11] = test system: GDM-1 (Acute Myeloid Leukemia)
# Summary of the method: as §1
# [12] = test system: SKN-3 (Head and Neck Carcinoma)
# Summary of the method: as §1
# H4 (Low Grade Glioma) = test system: H4 (Low Grade Glioma)
# Summary of the method: as §1
# [13] = test system: MES-SA (Other Solid Carcinomas)
# Summary of the method: as §1
# MSTO-211H (Mesothelioma) = test system: MSTO-211H (Mesothelioma)
# Summary of the method: as §1
# D-392MG (Glioblastoma) = test system: D-392MG (Glioblastoma)
# Summary of the method: as §1
# [14] = test system: SNU-61 (Colorectal Carcinoma)
# Summary of the method: as §1
# [15] = test system: EFM-192A (Breast Carcinoma)
# Summary of the method: as §1
SMILES,Bliss excess [1],Bliss excess [2],Bliss excess [3],Bliss excess (MCF7 (Breast Carcinoma)),Bliss excess [4],Bliss excess [5],Bliss excess [6],Bliss excess [7],Bliss excess (A172 (Glioblastoma)),Bliss excess [8],Bliss excess [9],Bliss excess [10],Bliss excess [11],Bliss excess [12],Bliss excess (H4 (Low Grade Glioma)),Bliss excess [13],Bliss excess (MSTO-211H (Mesothelioma)),Bliss excess (D-392MG (Glioblastoma)),Bliss excess [14],Bliss excess [15]
"NC1(C(=O)N[C@@H](CCO)c2ccc(Cl)cc2)CCN(c2ncnc3[nH]ccc23)CC1 [Capivasertib] + C[C@@H]1COCCN1C2=NC(=NC(=C2)C3(CC3)[S@](=N)(=O)C)C4=C5C=CNC5=NC=C4 [AZD6738] (first compound max 10 µM, 7x7, partner max 10 µM)",0.0094,-0.0421,-0.0984,-0.0707,-0.0386,-0.0249,-0.134,-0.105,-0.0106,-0.109,-0.038,-0.0579,-0.024,-0.0564,-0.0667,-0.0719,-0.0088,-0.0393,-0.0316,-0.0546
"NC1(C(=O)N[C@@H](CCO)c2ccc(Cl)cc2)CCN(c2ncnc3[nH]ccc23)CC1 [Capivasertib] + Cn1cnc2c(F)c(Nc3ccc(Br)cc3Cl)c(C(=O)NOCCO)cc21 [Selumetinib] (first compound max 10 µM, 7x7, partner max 10 µM)",0.0883,0.04,0.0648,-0.0332,-0.0134,-0.0041,-0.0305,-0.0014,-0.008,0.0219,0.0365,0.0099,0.072,-0.0759,-0.0307,-0.0017,0.0663,-0.0202,0.025,-0.0326
"Cc1nc(Nc2ncc(C(=O)Nc3c(C)cccc3Cl)s2)cc(N2CCN(CCO)CC2)n1 [Dasatinib] + CC(=O)Nc1cccc(-n2c(=O)n(C3CC3)c(=O)c3c(Nc4ccc(I)cc4F)n(C)c(=O)c(C)c32)c1 [Trametinib] (first compound max 2 µM, 7x7, partner max 1 µM)",-0.0457,-0.0114,-0.0097,-0.0601,-0.002,-0.0521,-0.0719,0.0293,-0.0823,0.0895,0.0283,-0.126,-0.102,0.004,-0.0488,-0.0311,-0.001,0.0155,0.0295,-0.0545
"COc1cccc2c1C(=O)c1c(O)c3c(c(O)c1C2=O)C[C@@](O)(C(=O)CO)C[C@@H]3O[C@H]1C[C@H](N)[C@H](O)[C@H](C)O1 [Doxorubicin] + Cc1cc2ncnn2cc1Nc1ncc2c(n1)n(C1CCOCC1)c(=O)n2C [AZD7648] (first compound max 1 µM, 7x7, partner max 10 µM)",0.0633,0.0178,0.0194,0.058,0.107,0.0344,-0.0449,0.0202,0.0789,0.0591,0.0309,0.128,0.112,0.0045,0.0066,0.0696,0.115,0.0458,-0.0124,-0.0216
"COc1cc2ncnc(Nc3ccc(F)c(Cl)c3)c2cc1OCCCN1CCOCC1 [Gefitinib] + CC(C)n1c(=O)n(C)c2cnc3cc(F)c(-c4ccc(OCCCN5CCCCC5)nc4)cc3c21 [AZD1390] (first compound max 10 µM, 7x7, partner max 0.3 µM)",-0.0726,-0.0613,-0.109,-0.0395,-0.0735,-0.0513,-0.0999,-0.0572,-0.0554,-0.0851,-0.0487,-0.0347,-0.0833,-0.0688,-0.0806,-0.0458,-0.0571,-0.086,-0.0929,-0.0752
"CS(=O)(=O)CCNCc1ccc(-c2ccc3ncnc(Nc4ccc(OCc5cccc(F)c5)c(Cl)c4)c3c2)o1 [Lapatinib] + C[C@@H](Oc1cc(-c2cnn(C3CCNCC3)c2)cnc1N)c1c(Cl)ccc(F)c1Cl [Crizotinib] (first compound max 10 µM, 7x7, partner max 10 µM)",-0.0611,-0.038,-0.0413,-0.0386,0.0097,-0.081,-0.0298,-0.0312,-0.0564,-0.0403,-0.072,-0.0755,-0.0027,-0.0299,0.002,-0.0302,-0.0667,-0.0528,0.0198,0.0063
"CC(=O)c1c(C)c2cnc(Nc3ccc(N4CCNCC4)cn3)nc2n(C2CCCC2)c1=O [Palbociclib] + CC1(C)CCC(CN2CCN(c3ccc(C(=O)NS(=O)(=O)c4ccc(NCC5CCOCC5)c([N+](=O)[O-])c4)c(Oc4cnc5[nH]ccc5c4)c3)CC2)=C(c2ccc(Cl)cc2)C1 [Venetoclax] (first compound max 10 µM, 7x7, partner max 1 µM)",-0.0316,-0.0379,-0.0501,-0.0334,-0.0439,-0.13,-0.0012,-0.0237,-0.003,-0.0026,-0.0399,-0.0032,0.0557,-0.07,0.0013,0.0594,-0.0922,-0.07,-0.0361,-0.0115
"CC(=O)c1c(C)c2cnc(Nc3ccc(N4CCNCC4)cn3)nc2n(C2CCCC2)c1=O [Palbociclib] + Cc1c2c(nn1C)CSCc1cc(n(C)n1)CSc1cc(c3ccccc3c1)OCCCc1c(C(=O)O)n(C)c3c-2c(Cl)ccc13 [AZD5991] (first compound max 10 µM, 7x7, partner max 1 µM)",-0.0081,-0.0324,-0.0233,-0.103,-0.0442,0.0006,-0.0083,0.0011,-0.0589,-0.0289,-0.0339,-0.0915,0.0919,-0.0428,-0.0371,-0.05,-0.0265,0.0189,-0.0371,-0.119
"CC(=O)c1c(C)c2cnc(Nc3ccc(N4CCNCC4)cn3)nc2n(C2CCCC2)c1=O [Palbociclib] + Cn1cnc2c(F)c(Nc3ccc(Br)cc3Cl)c(C(=O)NOCCO)cc21 [Selumetinib] (first compound max 10 µM, 7x7, partner max 10 µM)",0.0539,-0.0172,-0.117,-0.0013,-0.035,-0.0471,-0.0121,0.0325,0.0031,-0.065,-0.0418,-0.014,0.0343,0.0345,0.0308,-0.0009,-0.0714,-0.0665,0.0179,-0.0289
"COc1cccc(OCCCN)c1-c1cc(Nc2cnc(C#N)cn2)n[nH]1 [Prexasertib] + C=CCn1c(=O)c2cnc(Nc3ccc(N4CCN(C)CC4)cc3)nc2n1-c1cccc(C(C)(C)O)n1 [AZD1775] (first compound max 1 µM, partner max 1 µM)",0.0434,-0.029,0.0698,0.0197,0.233,-0.0086,-0.0202,0.0271,0.142,0.0459,0.0125,0.0539,0.0096,0.119,0.0726,0.078,0.0083,0.109,-0.0124,0.0662
"COc1cccc(OCCCN)c1-c1cc(Nc2cnc(C#N)cn2)n[nH]1 [Prexasertib] + CCc1c2c(nc3ccc(O)cc13)-c1cc3c(c(=O)n1C2)COC(=O)[C@]3(O)CC [SN-38] (first compound max 1 µM, 7x7, partner max 0.3 µM)",-0.0239,0,-0.0534,-0.0081,0.0129,-0.0527,-0.081,0.0452,-0.0322,-0.0899,-0.0359,-0.0319,-0.0108,0.0703,-0.0544,-0.0714,-0.0857,-0.11,0.0163,0.0304
"COc1cccc(OCCCN)c1-c1cc(Nc2cnc(C#N)cn2)n[nH]1 [Prexasertib] + CN(C)CCCOc1ccc(-c2ccc3ncc4c(c3c2)n(C2CCOCC2)c(=O)n4C)cn1 [AZD0156] (first compound max 1 µM, 7x7, partner max 1 µM)",-0.02,-0.0026,0.0305,0.149,-0.0525,-0.0114,-0.0296,-0.0453,0.0542,-0.0627,-0.0646,-0.0154,-0.0491,0.011,-0.0309,0.0641,-0.0164,-0.0235,-0.0459,0.0078
"COc1cccc(OCCCN)c1-c1cc(Nc2cnc(C#N)cn2)n[nH]1 [Prexasertib] + C[C@@H]1COCCN1C2=NC(=NC(=C2)C3(CC3)[S@](=N)(=O)C)C4=C5C=CNC5=NC=C4 [AZD6738] (first compound max 1 µM, 7x7, partner max 10 µM)",-0.029,-0.0234,0.0329,0.017,-0.0106,-0.0631,0.0657,-0.026,0.0013,-0.0604,0,-0.0147,-0.0333,-0.0347,0.0311,-0.0765,-0.0197,0.0355,-0.0693,0.0131
"COc1cccc(OCCCN)c1-c1cc(Nc2cnc(C#N)cn2)n[nH]1 [Prexasertib] + Cc1cc2ncnn2cc1Nc1ncc2c(n1)n(C1CCOCC1)c(=O)n2C [AZD7648] (first compound max 1 µM, 7x7, partner max 10 µM)",0.0078,0.0186,-0.0284,0.0688,-0.0011,-0.0508,-0.075,-0.0318,-0.0573,-0.072,-0.064,-0.0388,-0.058,-0.0564,-0.0369,-0.02,-0.0059,-0.0254,-0.0123,-0.0199
"COc1cccc(OCCCN)c1-c1cc(Nc2cnc(C#N)cn2)n[nH]1 [Prexasertib] + O=C(c1cc(Cc2n[nH]c(=O)c3ccccc23)ccc1F)N1CCN(C(=O)C2CC2)CC1 [Olaparib] (first compound max 1 µM, 7x7, partner max 10 µM)",-0.0676,-0.0262,-0.124,-0.0236,0.0459,-0.0314,-0.0784,-0.18,-0.0474,-0.0934,-0.0458,-0.027,-0.0516,-0.0113,-0.0306,-0.0561,-0.0597,-0.0698,-0.0407,-0.0365
